Entries after “also recorded” stand apart in the source; their conditions may differ.
Legend:
[1] = test system: ICAM-1; assay: ICAM-1 ELISA / Western blot in RECs treated with melphalan; assay type: cell-based, human; conditions: TNF-α siRNA or etanercept + melphalan
[2] = test system: RECs
[3] = test system: NF-κB; assay: Western blot of phospho-NF-κB / total NF-κB in RECs; assay type: cell-based, human; conditions: melphalan 4 μg/mL
Protocol: Western blotting. After appropriate treatments and rinsing with cold phosphate-buffered saline, REC were lysed in the lysis buffer containing the protease and phosphatase inhibitors and scraped into the tubes. Equal amounts of protein from the cell or tissue extracts were separated on the pre-cast tris-glycine gel (Invitrogen, Carlsbad, Calif.), blotted onto a nitrocellulose membrane. After blocking in TBST (10 mM Tris-HCl buffer, pH 8.0, 150 mM NaCl, 0.1% Tween 20) and 5% (w/v) BSA, the membrane was treated with NF-κB, Phospho-NF-κB p38^MAPK, Phospho-p38^MAPK antibodies (1:500) followed by incubation with horseradish peroxidase labeled secondary antibodies. The antigen-antibody complexes were detected using chemilluminescence reagent kit (Thermo Scientific).
Transfections. REC were transfected with ICAM-1 siRNA, TNF-α siRNA, or NF-κB siRNA at a final concentration of 20 nM using Lipofectamine™ RNAiMAX Transfection Reagent according to the manufacturer's instructions. After transfection, cells were starved in MVGS-free Medium 131 for 24 hours and used as required.

[4] = test system: RECs; conditions: melphalan 4 μg/mL; cited from earlier work
[5] = test system: Y79 retinoblastoma cells; assay: Cell death ELISA in Y79 retinoblastoma cells; assay type: cell-based, human; conditions: melphalan 0.8, 1 or 4 μg/mL tested
[6] = test system: p53; assay: Immunoblot of phosphorylated and total p53 in RECs; assay type: cell-based, human
[7] = test system: paxillin; assay: Immunoblot of paxillin (Y118) phosphorylation in irradiated RECs; assay type: cell-based, human; conditions: irradiated RECs 30 Gy, 24 hours, P<0.05

With etanercept as the compound, how does the “melphalan-induced ICAM-1 levels with TNF-α inhibition” value [1] read?
The value was “neither TNF-α siRNA nor etanercept could reduce ICAM-1 levels; also recorded: Neither TNFα siRNA nor etanercept reduced ICAM-1 levels”.

And the “REC apoptosis after melphalan treatment (etanercept)” value ([2]; etanercept + melphalan)?
The value was “did not reach statistical significance”.

Which results are given for `N[C@@H](Cc1ccc(N(CCCl)CCCl)cc1)C(=O)O` [melphalan]?
induction of NF-κB phosphorylation [3]: time-dependent; time of maximum increase in NF-κB Ser536 phosphorylation [3]: 30 min; increase in REC death [4]: greater than 6 fold; apoptosis of Y79 retinoblastoma cells [5]: 4 μg/mL produced maximal apoptosis and best induces apoptosis at 4 μg/mL; DNA fragmentation in RECs ([2]; melphalan 4 μg/mL, 24 hours): did increase DNA fragmentation

Which p53 accumulation ([6]; RITA 10 μM for four hours vs untreated RECs, P<0.05) does the source give for `OCc1ccc(-c2ccc(-c3ccc(CO)s3)o2)s1` [RITA] here?
The p53 accumulation was “significantly enhanced”.

Which results are given for `Oc1ccc(-c2nc(-c3ccncc3)c(-c3ccc(F)cc3)[nH]2)cc1` [SB202190]?
phosphorylation of paxillin at Y118 [7]: significantly reduced; effect on RITA-induced p53 accumulation ([6]; concomitant treatment with RITA, P>0.05): did not significantly alter
